Consider five compounds from publication PMC12720113, “The binding mechanism of a novel ferrous ion chelating peptide from chicken blood hemoglobin and the bioavailability of the chelate” (Food Chemistry: X, 2025).

Data set [1] can be described thus: Iron chelating rate (alcohol precipitation method). As to conditions: synthesized peptide 1 mg/mL, pH 5 sodium acetate buffer, 1 mL + 2 mL FeCl2•4H2O 1.5 mM, 37 °C, 30 min, means ± SEM, three independent experiments. In kind it is binding. Here is the method:
The detection of iron chelation activity was performed using the method described by [Lin et al. (2021)]. The peptide solution was prepared using sodium acetate buffer. Subsequently, 1 mL of the peptide solution (1 mg/mL, pH 5) was mixed with 2 mL of FeCl₂•4H₂O (1.5 mM) and reacted at 37 °C for 30 min. Then, the alcohol precipitation method was used to determine the chelation rate of ferrous ions:(1) Iron chelating rate%=A−A1/A×100% where: A is the total amount of ions added; A1 is the content of free ions in the supernatant.
The peptides identified by mass spectrometry were synthesized by China Qiangyao Co., Ltd. (Shanghai, China) using Fmoc-protected amino acid solid-phase peptide synthesis, with the purity of these peptides evaluated at over 98 %. The ferrous ion chelating activity was verified using the method described in Section 2.3.

Data set [2] in a line: In vitro digestive simulation (iron retention). In kind it is in vitro ADME. Here is the method: In vitro simulated digestion of […] according to [Ding et al. (2025)]. […] To simulate the digestive processes of the stomach and intestines separately, the pH values of the three iron supplements were adjusted to 2.0 and 7.6, respectively, and pepsin and trypsin (3 %, w/w) were added separately. The mixture was incubated in a water bath at 37 °C for 2 h. To simulate the digestive processes of the gastrointestinal tract, the three iron supplements were subjected to simulated gastric digestion followed by intestinal digestion. The retention rates of iron after gastric digestion, intestinal digestion, and simulated gastrointestinal digestion were determined according to the method described in Section 2.9.1.

The next data set in a line: Zeta potential. It is filed as physicochemical. As to conditions: 1 mg/mL solution, 25 °C, Zetasizer Nano ZSE. Here is the method:
(§1) An appropriate amount of […] and […]-Fe solutions with a concentration of 1 mg/mL were added to U-shaped cuvettes and equilibrated at a constant temperature of 25 °C for 5 s. The Zeta potential values and particle size distributions of the samples were determined using a Zetasizer Nano ZSE analyzer to evaluate their surface charge characteristics and solution stability.

Data set [3] in a line: Particle size distribution. As to conditions: 1 mg/mL solution, 25 °C, Zetasizer Nano ZSE. In kind it is physicochemical. Here is the method: as §1
The next data set in a line: Thermogravimetry (TG). It is filed as physicochemical. Particulars: TAEDKKLIQ from 249 °C to 426 °C; TAEDKKLIQ-Fe from 638 °C to 686 °C; 10 °C/min. Here is the method: 5 mg of […] and […]-Fe lyophilized powders were weighed, respectively, and the thermal stability analysis was carried out by […]. The sample chamber temperature range is set from 50 to 800 °C, with a heating rate of 10 °C/min. The thermogravimetric change curves of the samples were recorded synchronously.

A short description of data set [4]: Intermolecular force analysis with dissociation reagents. Particulars: 2 mg/mL, read at 500 nm. In kind it is physicochemical. Here is the method:
Referring to the study by [Sun et al. (2020)], the intermolecular forces of […]-Fe were analyzed using different dissociation reagents. The absorbance values at 500 nm of the sample solution (2 mg/mL) were measured at the initial moment of the reaction (0 min) and after 30 min, respectively. At 30 min of the reaction, 1 mol/L NaCl, 30 mmol/L DTT (dithiothreitol), 0.5 % SDS, and 6 mol/L urea were added sequentially, followed immediately by absorbance detection using an enzyme meter.

Data set [5] in a line: Temperature and pH stability test (iron retention). It is filed as physicochemical. Particulars: 1 mg/mL aqueous solution, 2 h. Here is the method:
The temperature stability of […]-Fe was determined using the method described by [Qu et al. (2022)]. The aqueous solution of […]-Fe (1 mg/mL) was incubated for 2 h at a temperature gradient of 30–80 °C and a pH gradient of 2–9. […]-Fe was separated using the alcohol precipitation method to calculate the iron retention rate:(2) Iron retention%=A−A0/A×100% where A represents the total iron content added to the reaction (mmol/mL), A0 represents the iron ion content in the supernatant after the reaction (mmol/mL).

Data set [6] can be described thus: Effect of different dietary components on iron retention. It is filed as in vitro ADME. Here is the method:
Then, the pH was adjusted to 2.0, and oxalic acid solution (1 %, w/v) was added. Gastrointestinal digestion simulation was then performed under the conditions described in 2.9.2. After the reaction was complete, the enzyme was inactivated, and the supernatant was collected after centrifugation. To assess the effects of phytate and dietary fiber on iron absorption, 1 % phytate and 8 % dietary fiber were added to the sample solution, and the digestion and measurement steps were repeated. By comparing changes in iron retention under different treatment conditions, the impacts of phytate and dietary fiber on the stability of […] chelate were analyzed. For calculations of iron retention rates, refer to Section 2.9.1.

Another data set has as its system Caco-2 cells. Briefly: Caco-2 cell viability assay (MTT). It is filed as cell-based. As to conditions: 24 h, 490 nm, means ± SEM. Here is the method: Caco-2 cell viability assay was conducted on […]-Fe according to the method of [Wu et al. (2019)]. And lactoferrin was chosen as an experimental control. When the cell fusion rate was close to 80 %, the cells were dissociated and passaged using the trypsin-EDTA mixed digest. Cultivate the 23rd generation of cells in the logarithmic growth phase at 37 °C and 5 % CO₂ for 24 h. Then, a gradient concentration of […]-Fe and Ac-[…]-Fe was added to the wells of the experimental group, and all the samples were incubated for 24 h. After incubation, 20 μL of MTT reagent was added to each well. After 2 h of reaction, 150 μL of DMSO was added and agitated for 10 min. The absorbance values at 490 nm were measured to reflect cell activity levels. Cell relative activity (%) was calculated:(3) Relative cell viability%=As−Ab/Ac−Ab×100 where: As represents the absorbance value of the sample treatment, Ab represents the absorbance value without cells, and Ac represents the absorbance value without sample treatment.

Where two headings read alike, the source gives them in different places. Marks after values point to notes of the source that are not given here. Where no end group is shown, it is not given here.

In the case of “LSDLHAHKLR [Hemoglobin subunit alpha-A(84th–93th) peptide, synthesized]”, in data set [1], the “Chelation rate (%)” value is 87.07 ± 0.12^b %.

On to “QAWEKAASH [Hemoglobin subunit alpha-D(12th–20th) peptide, synthesized]”, for which the “Chelation rate (%)” value in data set [1] is 81.38 ± 0.27^c %.

As to TAEDKKLIQ, the “Ferrous retention after transfer to simulated intestinal fluid digestion” value in [2] (pH 7.6, trypsin 3 % w/w, 37 °C, 2 h, after gastric phase) was “significant increase in ferrous retention”.

For the compound TAEDKKLIQ-Fe, the Zeta potential in “Zeta potential” stood at 41.8 mV. For the same compound, the “Particle size, peak of the distribution” value in [3] is given as 295 nm. The “Weight loss, second stage (TG)” value in the data set “Thermogravimetry (TG)” worked out at 12.32%. In data set [4] (30 mmol/L DTT added at 30 min, disulfide bonds), the “Decrease in transmittance after DTT” value was found to be 0.138. Also, in [4] (0.5 % SDS added at 30 min, hydrophobic forces), the “Decrease in transmittance after SDS” value was 0.103. The “Decrease in transmittance after NaCl” value in data set [4] (1 mol/L NaCl added at 30 min, electrostatic interactions) was found to be 0.20. For the same compound, the “Decrease in transmittance after urea” value in [4] (6 mol/L urea added at 30 min, hydrogen bonding) was found to be 0.09. Further, the “Ferrous ion retention at 30 °C to 40 °C” value in [5] (alcohol precipitation) was “no significant loss observed”. In addition, the “Iron retention, pH 6-9” value in data set [5] (pH range 6-9) is on record as “above 88%”. Further, the “Overall retention of ferrous ions as the temperature continued to increase” value in data set [5] (temperature gradient 30-80 °C, above 40 °C) was “above 40%”. In data set [2], the “Iron retention in simulated digestion compared with the control iron supplements” value is “superior to that of ferrous sulfate and ferrous gluconate”. For the same compound, the “Retention of soluble iron with phytic acid” value in data set [6] is on record as 76.73%. The “Soluble iron content in the presence of phytic acid, oxalic acid or dietary fiber alone (rank)” value in data set [6] is listed as “highest level”. For the same compound, the “Relative vitality of cells (%)” value with Caco-2 cells (Caco-2, 0.125 mg/mL) came out at 98.06 ± 1.22%; in the data set with Caco-2 cells (Caco-2, 0.25 mg/mL) it was 97.72 ± 1.67%; with Caco-2 cells (Caco-2, 0.5 mg/mL), 97.53 ± 0.89%; in the data set on Caco-2 cells (Caco-2, 1 mg/mL), 97.21 ± 1.45%.

For `O=C([O-])[C@H](O)[C@@H](O)[C@H](O)[C@H](O)CO.O=C([O-])[C@H](O)[C@@H](O)[C@H](O)[C@H](O)CO.[Fe+2]` [ferrous gluconate, reference compound], in data set [6] (1 % oxalic acid, 1 % phytate or 8 % dietary fiber, then simulated gastrointestinal digestion, 37 °C), the “Soluble iron content in the presence of phytic acid, oxalic acid or dietary fiber alone (rank)” value is “lower”.
